pIC50: −log10 of the molar value. Where two headings read alike, the source gives them in different places.
Assays:
CK1δ = CK1δ (Homo sapiens (Human), UniProt P48730); assay: CK1δ kinase assay (Caliper LABCHIP electrophoretic separation of fluoresceinated peptide substrate and product); format: biochemical; conditions: for pIC50: 200 pM CK1δ, 50 μM ATP, 1.5 μM peptide substrate, 22 hours at room temperature, read-out: CK1δ (IC50)
Procedure, shortened: (§1)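 Reactions ran 22 hours at room temperature and were stopped with EDTA. Phosphorylated product and unphosphorylated substrate were then separated electrophoretically. Compounds were tested at eleven concentrations, and IC50 values came from non-linear regression.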

CK1ε = CK1ε (Homo sapiens (Human), UniProt P49674); assay: CK1ε kinase assay (Caliper LABCHIP electrophoretic separation of fluoresceinated peptide substrate and product); format: biochemical; conditions: 200 pM CK1ε, 50 μM ATP, 1.5 μM peptide substrate, 22 hours at room temperature; read-out: CK1ε (IC50)
Chain of CK1ε (P49674 whole entry): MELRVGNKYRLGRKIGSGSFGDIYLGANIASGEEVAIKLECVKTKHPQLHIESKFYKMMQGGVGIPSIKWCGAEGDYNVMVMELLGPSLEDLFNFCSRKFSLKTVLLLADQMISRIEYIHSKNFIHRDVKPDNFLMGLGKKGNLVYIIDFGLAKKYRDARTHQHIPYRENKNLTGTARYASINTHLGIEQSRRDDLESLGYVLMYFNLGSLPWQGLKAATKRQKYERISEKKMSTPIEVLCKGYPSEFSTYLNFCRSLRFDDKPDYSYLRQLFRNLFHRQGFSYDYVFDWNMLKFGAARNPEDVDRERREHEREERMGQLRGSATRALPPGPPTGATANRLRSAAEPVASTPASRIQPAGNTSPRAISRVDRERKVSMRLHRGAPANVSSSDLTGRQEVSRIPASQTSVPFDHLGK
Procedure, shortened: as §1

Chain of CK1δ (P48730 whole entry): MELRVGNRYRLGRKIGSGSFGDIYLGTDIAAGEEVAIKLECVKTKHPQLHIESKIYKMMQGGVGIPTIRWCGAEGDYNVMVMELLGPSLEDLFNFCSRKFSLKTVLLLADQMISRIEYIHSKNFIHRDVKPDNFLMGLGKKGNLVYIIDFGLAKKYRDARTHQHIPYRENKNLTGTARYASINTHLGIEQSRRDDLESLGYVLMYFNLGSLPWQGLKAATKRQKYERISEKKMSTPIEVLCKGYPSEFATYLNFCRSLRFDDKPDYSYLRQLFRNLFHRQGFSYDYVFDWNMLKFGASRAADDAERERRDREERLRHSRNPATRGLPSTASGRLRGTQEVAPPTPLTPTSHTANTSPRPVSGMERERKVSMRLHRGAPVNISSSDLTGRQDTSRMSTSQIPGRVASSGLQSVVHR

Row | Molecule | pIC50 (CK1δ) | pIC50 (CK1ε) | IC50 (CK1δ; CK1δ (IC50, nM)) [nM]
1 | NC(=O)c1c(-c2ccc(F)c(F)c2)nn2c1CN(C(=O)Nc1ccc3c(c1)CS(=O)(=O)C3)CC2 [Compound 234, 2-(3,4-Difluorophenyl)-N^5-(2,2-dioxido-1,3-dihydrobenzo[c]thiophen-5-yl)-6,7-dihydropyrazolo [1,5-a]pyrazine-3,5(4H)-dicarboxamide] | 8.00 to 11.00 | 8.00 to 11.00 | 
2 | N#Cc1ccc(NC(=O)N2CCn3nc(-c4ccc(F)c(Cl)c4)c(C(N)=O)c3C2)nc1 [Compound 193, 2-(3-Chloro-4-fluorophenyl)-N^5-(5-cyanopyridin-2-yl)-6,7-dihydropyrazolo[1,5-a] pyrazine-3,5(4H)-dicarboxamide] | 8.00 to 11.00 | 8.00 to 11.00 | 
3 | CC(C)(C)c1cc(NC(=O)N2CCn3nc(-c4cccc(Cl)c4)c(C(N)=O)c3C2)ccc1C#N [Compound A42, N^5-(3-(tert-Butyl)-4-cyanophenyl)-2-(3-chlorophenyl)-6,7-dihydropyrazolo[1,5-a]pyrazine-3,5(4H)-dicarboxamide] | 8.00 to 11.00 | 8.00 to 11.00 | 
4 | Cc1cc(-c2nn3c(c2C(N)=O)CN(C(=O)Nc2ccc4c(c2)OC(F)(F)O4)CC3)ccc1F [Compound 247, N^5-(2,2-Difluorobenzo [d][1,3]dioxol-5-yl)-2-(4-fluoro-3-methylphenyl)-6,7-dihydropyrazolo[1,5-a]pyrazine-3,5(4H)-dicarboxamide] | 8.00 to 11.00 | 8.00 to 11.00 | 
5 | Cc1nc2cc(-c3nn4c(c3C(N)=O)CN(C(=O)Nc3ccc(C#N)c(Cl)c3)CC4)cc(Cl)c2o1 [Compound 312, 2-(7-Chloro-2-methylbenzo[d]oxazol-5-yl)-N^5-(3-chloro-4-cyanophenyl)-6,7-dihydropyrazolo[1,5-a]pyrazine-3,5(4H)-dicarboxamide] | 8.00 to 11.00 | 8.00 to 11.00 | 
6 | COc1ccc(NC(=O)N2CCn3nc(-c4cccc(F)c4)c(C(N)=O)c3C2)cc1 [Compound 51, 2-(3-Fluorophenyl)-N^5-(4-methoxyphenyl)-6,7-dihydropyrazolo[1,5-a]pyrazine-3,5(4H)-dicarboxamide] | 8.00 to 11.00 | 8.00 to 11.00 | 
7 | NC(=O)c1c(-c2cccc(Cl)c2)nn2c1CN(C(=O)Nc1ccc(Cl)nc1)CC2 [Compound 171, 2-(3-Chlorophenyl)-N^5-(6-chloropyridin-3-yl)-6,7-dihydropyrazolo[1,5-a] pyrazine-3,5(4H)-dicarboxamide] | 8.00 to 11.00 | 8.00 to 11.00 | 
8 | NC(=O)c1c(-c2cccc(F)c2)nn2c1CN(C(=O)NC1CCCC1)CC2 [Compound 9, N^5-Cyclopentyl-2-(3-fluorophenyl)-6,7-dihydropyrazolo[1,5-a]pyrazine-3,5(4H)-dicarboxamide] | 8.00 to 11.00 | 8.00 to 11.00 | 
9 | NC(=O)c1c(-c2cccc(Cl)c2)nn2c1CN(C(=O)Nc1ccc(F)c(F)c1)CC2 [Compound 156, 2-(3-Chlorophenyl)-N^5-(3,4-difluorophenyl)-6,7-dihydropyrazolo[1,5-a]pyrazine-3,5(4H)-dicarboxamide] | 8.00 to 11.00 | 8.00 to 11.00 | 
10 | NC(=O)c1c(-c2ccc(F)c(Cl)c2)nn2c1CN(C(=O)Nc1cc(Cl)cc(Cl)c1)CC2 [Compound 173, 2-(3-Chloro-4-fluorophenyl)-N^5-(3,5-dichlorophenyl)-6,7-dihydropyrazolo[1,5-a] pyrazine-3,5(4H)-dicarboxamide] | 8.00 to 11.00 | 8.00 to 11.00 | 
11 | N#Cc1ccc(NC(=O)N2CCn3nc(-c4cc(Cl)c(F)c(Cl)c4)c(C(N)=O)c3C2)cc1 [Compound 259, N^5-(4-Cyanophenyl)-2-(3,5-dichloro-4-fluorophenyl)-6,7-dihydropyrazolo[1,5-a]pyrazine-3,5(4H)-dicarboxamide] | 8.00 to 11.00 | 8.00 to 11.00 | 
12 | NC(=O)c1c(-c2cccc(F)c2)nn2c1CN(C(=O)Nc1ccc(F)c(Cl)c1)CC2 [Compound 60, N^5-(3-Chloro-4-fluorophenyl)-2-(3-fluorophenyl)-6,7-dihydropyrazolo[1,5-a]pyrazine-3,5(4H)-dicarboxamide] | 8.00 to 11.00 | 8.00 to 11.00 | 
13 | CC1Cn2nc(-c3ccc(Cl)c(Cl)c3)c(C(N)=O)c2CN1C(=O)Nc1ccc(C#N)cc1 (single isomer, unassigned) [Compound 334, N^5-(4-Cyanophenyl)-2-(3,4-dichlorophenyl)-6-methyl-6,7-dihydropyrazolo[1,5-a]pyrazine-3,5(4H)-dicarboxamide] | 8.00 to 11.00 | 8.00 to 11.00 | 
14 | Cc1n[nH]c2c(Cl)cc(-c3nn4c(c3C(N)=O)CN(C(=O)Nc3ccc(C#N)cc3)CC4)cc12 [Compound 320, 2-(7-Chloro-3-methyl-1H-indazol-5-yl)-N^5-(4-cyanophenyl)-6,7-dihydropyrazolo[1,5-a]pyrazine-3,5(4H)-dicarboxamide] | 8.00 to 11.00 | 8.00 to 11.00 | 
15 | Cc1ccc(-c2nn3c(c2C(N)=O)CN(C(=O)Nc2ccc(C#N)c(F)c2)CC3)cc1Cl [Compound 255, 2-(3-Chloro-4-methylphenyl)-N^5-(4-cyano-3-fluorophenyl)-6,7-dihydropyrazolo [1,5-a]pyrazine-3,5(4H)-dicarboxamide] | 8.00 to 11.00 | 8.00 to 11.00 | 
16 | Cc1cc(NC(=O)N2CCn3nc(-c4cc(Cl)c5[nH]ncc5c4)c(C(N)=O)c3C2)ccc1C#N [Compound 317, 2-(7-Chloro-1H-indazol-5-yl)-N^5-(4-cyano-3-methylphenyl)-6,7-dihydropyrazolo[1,5-a]pyrazine-3,5(4H)-dicarboxamide] | 8.00 to 11.00 | 8.00 to 11.00 | 
17 | COc1cccc(NC(=O)N2CCn3nc(-c4cccc(F)c4)c(C(N)=O)c3C2)c1 [Compound 73, 2-(3-Fluorophenyl)-N^5-(3-methoxyphenyl)-6,7-dihydropyrazolo[1,5-a]pyrazine-3,5(4H)-dicarboxamide] | 8.00 to 11.00 | 8.00 to 11.00 | 
18 | N#Cc1ccc(NC(=O)N2CCn3nc(-c4cc(F)cc(Cl)c4)c(C(N)=O)c3C2)cc1Cl [Compound 222, N^5-(3-Chloro-4-cyanophenyl)-2-(3-chloro-5-fluorophenyl)-6,7-dihydropyrazolo[1,5-a] pyrazine-3,5(4H)-dicarboxamide] | 8.00 to 11.00 | 8.00 to 11.00 | 
19 | N#Cc1ccc(NC(=O)N2Cc3c(C(N)=O)c(-c4ccc(F)c(Cl)c4)nn3CC23CC3)cc1C(F)(F)F [Compound 345, 2′-(3-Chloro-4-fluorophenyl)-N^5′-(4-cyano-3-(trifluoromethyl)phenyl)-4′H-spiro[cyclopropane-1,6′-pyrazolo[1,5-a]pyrazine]-3′,5′(7′H)-dicarboxamide] |  | 7.00 to 8.00 | 10 to 100
20 | Cc1cc(-c2nn3c(c2C(N)=O)CN(C(=O)Nc2ccc(C#N)c(Cl)c2)CC3)ccc1F [Compound 244, N^5-(3-Chloro-4-cyanophenyl)-2-(4-fluoro-3-methylphenyl)-6,7-dihydropyrazolo[1,5-a] pyrazine-3,5(4H)-dicarboxamide] | 8.00 to 11.00 | 8.00 to 11.00 | 
21 | COc1cccc(-c2nn3c(c2C(N)=O)CN(C(=O)Nc2ccc(Cl)c(Cl)c2)CC3)c1 [Compound 303, N^5-(3,4-Dichlorophenyl)-2-(3-methoxyphenyl)-6,7-dihydropyrazolo[1,5-a] pyrazine-3,5(4H)-dicarboxamide] | 8.00 to 11.00 | 8.00 to 11.00 | 
22 | NC(=O)c1c(-c2cccc(F)c2)nn2c1CN(C(=O)Nc1cc(C(F)(F)F)cc(C(F)(F)F)c1)CC2 [Compound 53, N^5-(3,5-Bis(trifluoromethyl)phenyl)-2-(3-fluorophenyl)-6,7-dihydropyrazolo[1,5-a]pyrazine-3,5(4H)-dicarboxamide] | 8.00 to 11.00 | 8.00 to 11.00 | 
23 | NC(=O)c1c(-c2cccc(F)c2)nn2c1CN(C(=O)NC1CCN(CCC(F)(F)F)CC1)CC2 [Compound 103, 2-(3-Fluorophenyl)-N^5-(1-(3,3,3-trifluoropropyl)piperidin-4-yl)-6,7-dihydropyrazolo[1,5-a]pyrazine-3,5(4H)-dicarboxamide] | 8.00 to 11.00 | 7.00 to 8.00 | 
24 | N#Cc1ccc(NC(=O)N2CCn3nc(-c4cc(F)cc(Cl)c4)c(C(N)=O)c3C2)cc1C(F)(F)F [Compound 218, 2-(3-Chloro-5-fluorophenyl)-N^5-(4-cyano-3-(trifluoromethyl)phenyl)-6,7-dihydropyrazolo[1,5-a] pyrazine-3,5(4H)-dicarboxamide] | 7.00 to 8.00 | 8.00 to 11.00 | 
25 | Cn1ncc2c(F)cc(-c3nn4c(c3C(N)=O)CN(C(=O)Nc3ccc(C#N)cc3)CC4)cc21 [Compound 326, N^5-(4-Cyanophenyl)-2-(4-fluoro-1-methyl-1H-indazol-6-yl)-6,7-dihydropyrazolo[1,5-a]pyrazine-3,5(4H)-dicarboxamide] | 8.00 to 11.00 | 8.00 to 11.00 | 
26 | N-(tert-Butyl)-2-(3,4-dichlorophenyl)-7-methyl-6,7-dihydropyrazolo[1,5-a]pyrazine-3,5(4H)-dicarboxamide [Compound A32] | 8.00 to 11.00 | 8.00 to 11.00 | 
27 | Cc1ccc(-c2nn3c(c2C(N)=O)CN(C(=O)Nc2ccc(C#N)cc2)CC3)cc1C [Compound 282, N^5-(4-Cyanophenyl)-2-(3,4-dimethylphenyl)-6,7-dihydropyrazolo[1,5-a] pyrazine-3,5(4H)-dicarboxamide] | 8.00 to 11.00 | 8.00 to 11.00 | 
28 | Cc1cc(F)cc(-c2nn3c(c2C(N)=O)CN(C(=O)Nc2ccc(C#N)c(Cl)c2)CC3)c1 [Compound 230, N^5-(3-Chloro-4-cyanophenyl)-2-(3-fluoro-5-methylphenyl)-6,7-dihydropyrazolo[1,5-a] pyrazine-3,5(4H)-dicarboxamide] | 8.00 to 11.00 | 8.00 to 11.00 | 
29 | Cc1ccc(NC(=O)N2CCn3nc(-c4ccc(F)c(Cl)c4)c(C(N)=O)c3C2)cc1C [Compound 175, 2-(3-Chloro-4-fluorophenyl)-N^5-(3,4-dimethylphenyl)-6,7-dihydropyrazolo[1,5-a] pyrazine-3,5(4H)-dicarboxamide] | 8.00 to 11.00 | 8.00 to 11.00 | 
